Reference: PubChem BioAssay AID248 (DTP/NCI, 2004)
Where “and” joins values, the source holds several entries; their conditions need not be identical. Identical values can stand only once. Inconclusive results and toxic doses are left out. No stated cut-off is given here; in the data, active means T/C of 150% or more; inactive means T/C below 125%.

Test system: L1210 leukemia ip in BDF1 mice, survival T/C
Experiment: NCI In Vivo Anticancer Drug Screen. Data for tumor model L1210 Leukemia (intraperitoneal) in B6D2F1 (BDF1) mice
Conditions: endpoint: mean survival time, higher = longer survival
In short: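 Ratio derived from survival: compound-dosed mice over vehicle-dosed mice, all bearing a transplantable tumor.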

[1] = dose: 100.0 mg/kg/injection, schedule: Q01DX009 (ip), vehicle: saline with Tween-80
[2] = dose: 100.0 mg/kg/injection, schedule: Q04DX003 (ip), vehicle: saline with Tween-80
[3] = dose: 200.0 mg/kg/injection, schedule: Q01DX009 (ip), vehicle: saline with Tween-80
[4] = dose: 200.0 mg/kg/injection, schedule: Q04DX003 (ip), vehicle: saline with Tween-80
[5] = dose: 100.0 mg/kg/injection, schedule: Q01DX009 (ip), vehicle: saline
[6] = dose: 100.0 mg/kg/injection, schedule: Q01DX009 (ip), vehicle: Klucel (hydroxypropylcellulose) (HPC)
[7] = dose: 400.0 mg/kg/injection, schedule: Q01DX009 (ip), vehicle: saline with Tween-80
[8] = dose: 25.0 mg/kg/injection, schedule: Q01DX009 (ip), vehicle: saline
[9] = dose: 50.0 mg/kg/injection, schedule: Q01DX009 (ip), vehicle: saline
[10] = dose: 100.0 mg/kg/injection, schedule: Q01DX001 (ip), vehicle: saline
[11] = dose: 200.0 mg/kg/injection, schedule: Q01DX001 (ip), vehicle: saline
[12] = dose: 400.0 mg/kg/injection, schedule: Q01DX001 (ip), vehicle: saline
[13] = dose: 50.0 mg/kg/injection, schedule: Q01DX001 (ip), vehicle: carboxymethylcellulose (CMC)
[14] = dose: 200.0 mg/kg/injection, schedule: Q01DX001 (ip), vehicle: carboxymethylcellulose (CMC)
[15] = dose: 400.0 mg/kg/injection, schedule: Q01DX001 (ip), vehicle: carboxymethylcellulose (CMC)

Measured: T/C

CN(C)CCCCCO
inactive: dose: 25.0 mg/kg/injection, schedule: Q01DX009 (ip), vehicle: saline with Tween-80 96 % of control | dose: 50.0 mg/kg/injection, schedule: Q01DX009 (ip), vehicle: saline with Tween-80 102 % of control and 87 % of control | [1] 91 % of control | [2] 97 % of control | [3] 100 % of control | [4] 100 % of control

C=CCNC(=S)Nc1cccc(C(C)O)c1 (stereo not given)
inactive: [5] 107 % of control | dose: 100.0 mg/kg/injection, schedule: Q04DX002 (ip), vehicle: saline 89 % of control | dose: 200.0 mg/kg/injection, schedule: Q01DX009 (ip), vehicle: saline 112 % of control | dose: 200.0 mg/kg/injection, schedule: Q04DX002 (ip), vehicle: saline 89 % of control | dose: 400.0 mg/kg/injection, schedule: Q04DX002 (ip), vehicle: saline 96 % of control

Cc1cccc(Cl)c1OCC(=O)Nc1ccccc1
inactive: dose: 100.0 mg/kg/injection, schedule: Q04DX002 (ip), vehicle: saline with Tween-80 101 % of control | dose: 200.0 mg/kg/injection, schedule: Q04DX002 (ip), vehicle: saline with Tween-80 104 % of control

O=C(O)c1ccc2ccccc2c1C(=O)c1ccc(F)cc1
inactive: dose: 100.0 mg/kg/injection, schedule: Q04DX002 (ip), vehicle: Klucel (hydroxypropylcellulose) (HPC) 101 % of control | dose: 100.0 mg/kg/injection, schedule: Q04DX003 (ip), vehicle: other 113 % of control | dose: 200.0 mg/kg/injection, schedule: Q04DX002 (ip), vehicle: Klucel (hydroxypropylcellulose) (HPC) 96 % of control | dose: 200.0 mg/kg/injection, schedule: Q04DX003 (ip), vehicle: other 97 % of control | dose: 400.0 mg/kg/injection, schedule: Q04DX002 (ip), vehicle: Klucel (hydroxypropylcellulose) (HPC) 92 % of control | dose: 400.0 mg/kg/injection, schedule: Q04DX003 (ip), vehicle: other 97 % of control

Cc1c2ccccc2c(C)c2c1cc(O)c1ccccc12
inactive: dose: 50.0 mg/kg/injection, schedule: Q01DX009 (ip), vehicle: Klucel (hydroxypropylcellulose) (HPC) 113 % of control | [6] 121 % of control

Cc1cc([N+](=O)[O-])c2ccccc2c1N
inactive: [1] 117 % of control | [3] 98 % of control | [7] 105 % of control

CCCCOP(=O)(OCCCC)C(O)CCC (stereo not given)
inactive: dose: 100.0 mg/kg/injection, schedule: Q01DX001 (ip), vehicle: saline with Tween-80 93 % of control | [2] 104 % of control | dose: 200.0 mg/kg/injection, schedule: Q01DX001 (ip), vehicle: saline with Tween-80 93 % of control | [4] 98 % of control

CCCCCCCCCCCCCCCCCCN1C(=O)C2C(C1=O)C1(Cl)C(Cl)=C(Cl)C2(Cl)C1(Cl)Cl (stereo not given)
inactive: [2] 96 % of control | [4] 93 % of control

CN(C)C=C1C(=O)NC(=O)NC1=O
inactive: dose: 25.0 mg/kg/injection, schedule: Q01DX001 (ip), vehicle: saline 96 % of control | [8] 95 % of control | dose: 50.0 mg/kg/injection, schedule: Q01DX001 (ip), vehicle: saline 103 % of control | [9] 106 % of control | [10] 102 % of control | [5] 106 % of control

Clc1ccc(/C=N/N2CCN(/N=C/c3ccc(Cl)c(Cl)c3)CC2)cc1Cl
inactive: [10] 92 % of control | [11] 92 % of control | [12] 92 % of control

O=[As](O)(CC(O)c1ccccc1)c1ccccc1 (stereo not given)
inactive: dose: 6.25 mg/kg/injection, schedule: Q01DX001 (ip), vehicle: saline with Tween-80 97 % of control | dose: 12.5 mg/kg/injection, schedule: Q01DX001 (ip), vehicle: saline with Tween-80 103 % of control

CC(C)c1cc(C(C)C)nc(NNc2nc(C(C)C)cc(C(C)C)n2)n1
inactive: [1] 102 % of control | [3] 100 % of control | [7] 98 % of control

CCOC(=O)C(CCc1cc2ccccc2[nH]1)(C(=O)OCC)N1C(=O)c2ccccc2C1=O
inactive: [6] 94 % of control | dose: 200.0 mg/kg/injection, schedule: Q01DX009 (ip), vehicle: Klucel (hydroxypropylcellulose) (HPC) 89 % of control | dose: 400.0 mg/kg/injection, schedule: Q01DX009 (ip), vehicle: Klucel (hydroxypropylcellulose) (HPC) 89 % of control

COc1cc(N(CCCl)CCCl)ccc1/C=N/Nc1nncn1N
inactive: [13] 101 % of control | dose: 100.0 mg/kg/injection, schedule: Q01DX001 (ip), vehicle: carboxymethylcellulose (CMC) 98 % of control | [14] 110 % of control | [15] 104 % of control

S=C=Nc1cccc(N=C=S)c1
inactive: dose: 5.0 mg/kg/injection, schedule: Q01DX001 (ip), vehicle: acetone 105 % of control | dose: 10.0 mg/kg/injection, schedule: Q01DX001 (ip), vehicle: acetone 124 % of control | dose: 20.0 mg/kg/injection, schedule: Q01DX001 (ip), vehicle: acetone 100 % of control

C=CC/C=C/CCC
inactive: [13] 88 % of control | [14] 88 % of control | [15] 90 % of control

C=C1N(C)c2ccccc2C1(C)C
inactive: dose: 0.5 mg/kg/injection, schedule: Q01DX015 (ip), vehicle: carboxymethylcellulose (CMC) 97 % of control | dose: 1.0 mg/kg/injection, schedule: Q01DX015 (ip), vehicle: carboxymethylcellulose (CMC) 101 % of control | dose: 2.0 mg/kg/injection, schedule: Q01DX015 (ip), vehicle: carboxymethylcellulose (CMC) 104 % of control | dose: 4.0 mg/kg/injection, schedule: Q01DX015 (ip), vehicle: carboxymethylcellulose (CMC) 97 % of control and 123 % of control | dose: 8.0 mg/kg/injection, schedule: Q01DX015 (ip), vehicle: carboxymethylcellulose (CMC) 123 % of control

c1ccc(-n2ncnn2)cc1
inactive: [10] 98 % of control | [11] 95 % of control | [12] 90 % of control

N/N=C(\c1ccccc1)c1ccccn1
inactive: dose: 55.0 mg/kg/injection, schedule: Q01DX Z (ip), vehicle: methylcellulose (MC) 103 % of control | dose: 83.0 mg/kg/injection, schedule: Q01DX Z (ip), vehicle: methylcellulose (MC) 97 % of control | dose: 125.0 mg/kg/injection, schedule: Q01DX Z (ip), vehicle: methylcellulose (MC) 90 % of control

COc1ccc2c(c1OC)C1(CCN(C)C)CC(=O)CCC1C=C2 (stereo not given)
inactive: dose: 3.12 mg/kg/injection, schedule: Q01DX009 (ip), vehicle: Klucel (hydroxypropylcellulose) (HPC) 103 % of control | dose: 6.25 mg/kg/injection, schedule: Q01DX009 (ip), vehicle: Klucel (hydroxypropylcellulose) (HPC) 95 % of control | dose: 12.5 mg/kg/injection, schedule: Q01DX009 (ip), vehicle: Klucel (hydroxypropylcellulose) (HPC) 98 % of control | dose: 25.0 mg/kg/injection, schedule: Q01DX009 (ip), vehicle: Klucel (hydroxypropylcellulose) (HPC) 86 % of control | dose: 100.0 mg/kg/injection, schedule: Q04DX003 (ip), vehicle: Klucel (hydroxypropylcellulose) (HPC) 98 % of control

O=CNc1ccc2c3c(cccc13)CC2
inactive: dose: 100.0 mg/kg/injection, schedule: Q01DX001 (ip), vehicle: Klucel (hydroxypropylcellulose) (HPC) 101 % of control | dose: 200.0 mg/kg/injection, schedule: Q01DX001 (ip), vehicle: Klucel (hydroxypropylcellulose) (HPC) 93 % of control | dose: 400.0 mg/kg/injection, schedule: Q01DX001 (ip), vehicle: Klucel (hydroxypropylcellulose) (HPC) 108 % of control

C1CC2OC2CCC2OC12 (stereo not given)
inactive: dose: 100.0 mg/kg/injection, schedule: Q01DX001 (ip), vehicle: other 95 % of control | dose: 200.0 mg/kg/injection, schedule: Q01DX001 (ip), vehicle: other 106 % of control | dose: 400.0 mg/kg/injection, schedule: Q01DX001 (ip), vehicle: other 101 % of control

CNC(=O)Nc1cc2ccccc2o1
inactive: [2] 101 % of control | [4] 92 % of control | dose: 400.0 mg/kg/injection, schedule: Q04DX003 (ip), vehicle: saline with Tween-80 92 % of control

CN1CCN(C(c2ccccc2)c2ccc(Cl)cc2)CC1 (stereo not given)
inactive: dose: 6.25 mg/kg/injection, schedule: Q01DX009 (ip), vehicle: saline 102 % of control | dose: 12.5 mg/kg/injection, schedule: Q01DX009 (ip), vehicle: saline 92 % of control | dose: 12.5 mg/kg/injection, schedule: Q04DX003 (ip), vehicle: saline 95 % of control | [8] 94 % of control | dose: 25.0 mg/kg/injection, schedule: Q04DX003 (ip), vehicle: saline 111 % of control | [9] 100 % of control | dose: 50.0 mg/kg/injection, schedule: Q04DX003 (ip), vehicle: saline 90 % of control | dose: 100.0 mg/kg/injection, schedule: Q04DX003 (ip), vehicle: saline 97 % of control
